# Assay results published in patent US20030139391A1 (priority 2000, published 2003).
# Tested on: Patients diagnosed with Alzheimer's Disease
# Experiment: Adverse events and discontinuation in 5-month slow-titration trial
# Format: in vivo, human
# Experimental: Subjects in the Placebo group received 21 weeks (5 months) of placebo medication.
# The safety of the drug was also monitored throughout the study. Blood samples for biochemistry and haematology and random urine sample for urinalysis were taken at each visit and at completion for all efficacy testing. Systolic and diastolic blood pressure were measured in the sitting position, pulse and vital signs were recorded at each visit.
compound,measurement,setting,value
"COc1ccc2c3c1O[C@H]1C[C@@H](O)C=C[C@@]31CCN(C)C2 [GAL, galantamine]",Serious adverse event Cardiac failure: number,16 mg/day,3
same,Serious adverse event Dehydration: %,16 mg/day,(1.1%)
same,Serious adverse event Dehydration: number,16 mg/day,3
same,Serious adverse event Diarrhea: %,16 mg/day,(1.1%)
same,Serious adverse event Diarrhea: number,16 mg/day,3
same,Serious adverse event Dyspnea: %,16 mg/day,(0.7%)
same,Serious adverse event Dyspnea: number,16 mg/day,2
same,Serious adverse event Fall: %,16 mg/day,(0.4%)
same,Serious adverse event Fall: number,16 mg/day,1
same,Serious adverse event Gi haemorrhage: %,16 mg/day,(0.0%)
same,Serious adverse event Gi haemorrhage: number,16 mg/day,0
same,Serious adverse event Injury: %,16 mg/day,(0.4%)
same,Serious adverse event Injury: number,16 mg/day,1
same,Serious adverse event Myocardial infarction: %,16 mg/day,(0.4%)
same,Serious adverse event Myocardial infarction: number,16 mg/day,1
same,Serious adverse event Nausea: %,16 mg/day,(0.7%)
same,Serious adverse event Nausea: number,16 mg/day,2
same,Serious adverse event Pneumonia: %,16 mg/day,(0.7%)
same,Serious adverse event Pneumonia: number,16 mg/day,2
same,Serious adverse event Sepsis: %,16 mg/day,(0.0%)
same,Serious adverse event Sepsis: number,16 mg/day,0
same,Serious adverse event Surgical intervention: %,16 mg/day,(1.1%)
same,Serious adverse event Surgical intervention: number,16 mg/day,3
same,Serious adverse event Syncope: %,16 mg/day,(1.4%)
same,Serious adverse event Syncope: number,16 mg/day,4
same,Serious adverse event Thrombophlebitis deep: %,16 mg/day,(0.0%)
same,Serious adverse event Thrombophlebitis deep: number,16 mg/day,0
same,Serious adverse event Transient ischemic attack: %,16 mg/day,(0.7%)
same,Serious adverse event Transient ischemic attack: number,16 mg/day,2
same,Serious adverse event Urinary tracq infection: %,16 mg/day,(0.7%)
same,Serious adverse event Urinary tracq infection: number,16 mg/day,2
same,Serious adverse event Vomiting: %,16 mg/day,(0.7%)
same,Serious adverse event Vomiting: number,16 mg/day,2
same,Syncope: % of patients,16 mg/day,(1.8%)
same,Syncope: number of patients,16 mg/day,5
same,Total discontinued (DC): %,16 mg/day,22%
same,Total discontinued (DC): N,16 mg/day,60
same,Total patients with any SAE: %,16 mg/day,(10.0%)
same,Total patients with any SAE: number,16 mg/day,28
same,Urinary tract infection: % of patients,16 mg/day,(8.2%)
same,Urinary tract infection: number of patients,16 mg/day,23
same,Vomiting: % of patients,16 mg/day,(6.1%)
same,Vomiting: number of patients,16 mg/day,17
same,Weight decrease: % of patients,16 mg/day,(5.4%)
same,Weight decrease: number of patients,16 mg/day,15
same,Agitation: % of patients,24 mg/day,(8.1%)
same,Agitation: number of patients,24 mg/day,22
same,Anorexia: % of patients,24 mg/day,(8.8%)
same,Anorexia: number of patients,24 mg/day,24
same,Bradycardia: % of patients,24 mg/day,(2.9%)
same,Bradycardia: number of patients,24 mg/day,8
same,Convulsions: % of patients,24 mg/day,(0.4%)
same,Convulsions: number of patients,24 mg/day,1
same,DC due to adverse event: %,24 mg/day,10%
same,DC due to adverse event: N,24 mg/day,27
same,DC due to inefficacy: %,24 mg/day,1%
same,DC due to inefficacy: N,24 mg/day,2
same,Depression: % of patients,24 mg/day,(8.%)
same,Depression: number of patients,24 mg/day,22
same,Diarrhea: % of patients,24 mg/day,(5.5%)
same,Diarrhea: number of patients,24 mg/day,15
same,Dizziness: % of patients,24 mg/day,(7.0%)
same,Dizziness: number of patients,24 mg/day,19
same,Dyspepsia: % of patients,24 mg/day,(5.5%)
same,Dyspepsia: number of patients,24 mg/day,15
same,Edema peripheral: % of patients,24 mg/day,(2.6%)
same,Edema peripheral: number of patients,24 mg/day,7
same,Fall: % of patients,24 mg/day,(4.4%)
same,Fall: number of patients,24 mg/day,12
same,Fatigue: % of patients,24 mg/day,(4.8%)
same,Fatigue: number of patients,24 mg/day,13
same,Headache: % of patients,24 mg/day,(4.8%)
same,Headache: number of patients,24 mg/day,13
same,Injury: % of patients,24 mg/day,(5.9%)
same,Injury: number of patients,24 mg/day,16
same,Muscle weakness: % of patients,24 mg/day,(0.4%)
same,Muscle weakness: number of patients,24 mg/day,1
same,Nausea: % of patients,24 mg/day,(16.5%)
same,Nausea: number of patients,24 mg/day,45
same,Rhinitis: % of patients,24 mg/day,(4.0%)
same,Rhinitis: number of patients,24 mg/day,11
same,Serious adverse event Abdominal pain: %,24 mg/day,(0.0%)
same,Serious adverse event Abdominal pain: number,24 mg/day,0
same,Serious adverse event Agitation: %,24 mg/day,(0.0%)
same,Serious adverse event Agitation: number,24 mg/day,0
same,Serious adverse event Asthenia: %,24 mg/day,(0.4%)
same,Serious adverse event Asthenia: number,24 mg/day,1
same,Serious adverse event Basal cell carcinoma: %,24 mg/day,(0.7%)
same,Serious adverse event Basal cell carcinoma: number,24 mg/day,2
same,Serious adverse event Breast neoplasm female: %,24 mg/day,(0.0%)
same,Serious adverse event Breast neoplasm female: number,24 mg/day,0
same,Serious adverse event Cardiac failure: %,24 mg/day,(0.0%)
same,Serious adverse event Cardiac failure: number,24 mg/day,0
same,Serious adverse event Dehydration: %,24 mg/day,(0.0%)
same,Serious adverse event Dehydration: number,24 mg/day,0
same,Serious adverse event Diarrhea: %,24 mg/day,(0.0%)
same,Serious adverse event Diarrhea: number,24 mg/day,0
same,Serious adverse event Dyspnea: %,24 mg/day,(1.1%)
same,Serious adverse event Dyspnea: number,24 mg/day,3.
same,Serious adverse event Fall: %,24 mg/day,(1.1%)
same,Serious adverse event Fall: number,24 mg/day,3
same,Serious adverse event Gi haemorrhage: %,24 mg/day,(0.7%)
same,Serious adverse event Gi haemorrhage: number,24 mg/day,2
same,Serious adverse event Injury: %,24 mg/day,(1.8%)
same,Serious adverse event Injury: number,24 mg/day,5
same,Serious adverse event Myocardial infarction: %,24 mg/day,(0.4%)
same,Serious adverse event Myocardial infarction: number,24 mg/day,1
same,Serious adverse event Nausea: %,24 mg/day,(0.0%)
same,Serious adverse event Nausea: number,24 mg/day,0
same,Serious adverse event Pneumonia: %,24 mg/day,(1.1%)
same,Serious adverse event Pneumonia: number,24 mg/day,3
same,Serious adverse event Sepsis: %,24 mg/day,(0.0%)
same,Serious adverse event Sepsis: number,24 mg/day,0
same,Serious adverse event Surgical intervention: %,24 mg/day,(0.0%)
same,Serious adverse event Surgical intervention: number,24 mg/day,0
same,Serious adverse event Syncope: %,24 mg/day,(1.8%)
same,Serious adverse event Syncope: number,24 mg/day,5
same,Serious adverse event Thrombophlebitis deep: %,24 mg/day,(0.7%)
same,Serious adverse event Thrombophlebitis deep: number,24 mg/day,2
same,Serious adverse event Transient ischemic attack: %,24 mg/day,(0.0%)
same,Serious adverse event Transient ischemic attack: number,24 mg/day,0
same,Serious adverse event Urinary tracq infection: %,24 mg/day,(0.0%)
same,Serious adverse event Urinary tracq infection: number,24 mg/day,0
same,Serious adverse event Vomiting: %,24 mg/day,(0.4%)
same,Serious adverse event Vomiting: number,24 mg/day,1
same,Syncope: % of patients,24 mg/day,(3.3%)
same,Syncope: number of patients,24 mg/day,9
same,Total discontinued (DC): %,24 mg/day,22%
same,Total discontinued (DC): N,24 mg/day,61
same,Total patients with any SAE: %,24 mg/day,(12.8%)
same,Total patients with any SAE: number,24 mg/day,35
same,Urinary tract infection: % of patients,24 mg/day,(8.1%)
same,Urinary tract infection: number of patients,24 mg/day,22
same,Vomiting: % of patients,24 mg/day,(9.9%)
same,Vomiting: number of patients,24 mg/day,27
same,Weight decrease: % of patients,24 mg/day,(4.8%)
same,Weight decrease: number of patients,24 mg/day,13
